Patent US8952024B2, “Herbicidal pyrimidone derivatives” (E I du Pont de Nemours and Company, priority 2009, dated 2015)

Columns and labels:
Test in all cases: Test D pre-/postemergence plant response
Type in all cases: in vivo
[1] = test system: bermudagrass (Cynodon dactylon)
Outline: (§1)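 Under greenhouse conditions for 14 to 21 days, plants treated pre- or postemergence with surfactant-formulated compound were compared by eye with untreated controls and scored 0–100 (100 = complete control; dash = no result).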

[2] = test system: mallow (common mallow, Malva sylvestris)
Outline: as §1

[3] = test system: sowthistle (common sowthistle, Sonchus oleraceous)
Outline: as §1

[4] = test system: prickly sida (Sida spinosa)
Outline: as §1

[5] = test system: johnsongrass (Sorghum halepense)
Outline: as §1

[6] = test system: barnyardgrass (Echinochloa crus-galli)
Outline: as §1

[7] = test system: groundsel (common groundsel, Senecio vulgaris); settings: Postemergence
Outline: as §1

[8] = test system: green foxtail (Setaria viridis)
Outline: as §1

[9] = test system: itchgrass (Rottboellia cochinchinensis)
Outline: as §1

[10] = test system: naked crabgrass (Digitaria nuda)
Outline: as §1

[11] = test system: nutsedge (purple nutsedge, Cyperus rotundus)
Outline: as §1

[12] = test system: guineagrass (Panicum maximum)
Outline: as §1

[13] = test system: spanishneedles (Bidens bipinnata)
Outline: as §1

[14] = test system: field bindweed (Convolvulus arvensis)
Outline: as §1

[15] = test system: Italian ryegrass (Lolium multiflorum)
Outline: as §1

[16] = Postemergence, 16 g ai/ha, scale 0 to 100
[17] = Postemergence, 31 g ai/ha, scale 0 to 100 (0 no effect, 100 complete control)
[18] = Postemergence, 125 g ai/ha, scale 0 to 100 (0 no effect, 100 complete control)
[19] = Postemergence, 62 g ai/ha, scale 0 to 100 (0 no effect, 100 complete control)
[20] = Preemergence, 16 g ai/ha, scale 0 to 100, 0 no effect, 100 complete control
[21] = Preemergence, 31 g ai/ha, scale 0 to 100 (0 no effect, 100 complete control)
[22] = Preemergence, 62 g ai/ha, scale 0 to 100
[23] = Preemergence, 125 g ai/ha, scale 0 to 100
[24] = Postemergence, 31 g ai/ha, scale 0 to 100
[25] = Preemergence, rate not given, scale 0 to 100, 0 no effect, 100 complete control

**Q.** What does the source list for `O=C1CCCC(O)=C1C(=O)c1cnc(-c2ccccc2)n(C2CCCCC2)c1=O` [Compound 128, 3-cyclohexyl-5-[(2-hydroxy-6-oxo-1-cyclohexen-1-yl)carbonyl]-2-phenyl-4(3H)-pyrimidinone]?
**A.** Plant response rating, Bermudagrass [1, 16]: 70; Plant response rating, Bermudagrass [1, 17]: 70; Plant response rating, Bermudagrass [1, 18]: 90; Plant response rating, Bermudagrass [1, 19]: 80; Plant response rating, Bermudagrass [1, 20]: 0; Plant response rating, Bermudagrass [1, 21]: 0; Plant response rating, Bermudagrass [1, 22]: 65; Plant response rating, Bermudagrass [1, 23]: 75; Plant response rating, Mallow [2, 16]: 5; Plant response rating, Mallow [2, 24]: 5; Plant response rating, Mallow [2, 18]: 40; Plant response rating, Mallow [2, 19]: 40; Plant response rating, Mallow [2, 21]: 70; Plant response rating, Mallow [2, 22]: 70; Plant response rating, Mallow [2, 23]: 100; Plant response rating, Sowthistle [3, 16]: 100; Plant response rating, Sowthistle [3, 24]: 100; Plant response rating, Sowthistle [3, 18]: 100; Plant response rating, Sowthistle [3, 19]: 100; Plant response rating, Sowthistle [3, 20]: 80; Plant response rating, Sowthistle [3, 21]: 80; Plant response rating, Sowthistle [3, 23]: 100; Plant response rating, Prickly Sida [4, 16]: 50; Plant response rating, Prickly Sida [4, 24]: 60; Plant response rating, Prickly Sida [4, 18]: 80; Plant response rating, Prickly Sida [4, 19]: 65; Plant response rating, Prickly Sida [4, 20]: 0; Plant response rating, Prickly Sida [4, 21]: 0; Plant response rating, Prickly Sida [4, 22]: 25; Plant response rating, Prickly Sida [4, 23]: 30; Plant response rating, Johnsongrass [5, 16]: 35; Plant response rating, Johnsongrass [5, 24]: 40; Plant response rating, Johnsongrass [5, 18]: 65; Plant response rating, Johnsongrass [5, 19]: 50; Plant response rating, Johnsongrass [5, 20]: 0; Plant response rating, Johnsongrass [5, 21]: 0; Plant response rating, Johnsongrass [5, 22]: 15; Plant response rating, Johnsongrass [5, 23]: 65; Plant response rating, Barnyardgrass [6, 16]: 35; Plant response rating, Barnyardgrass [6, 17]: 70; Plant response rating, Barnyardgrass [6, 18]: 90; Plant response rating, Barnyardgrass [6, 19]: 70; Plant response rating, Barnyardgrass [6, 20]: 0; Plant response rating, Barnyardgrass [6, 21]: 0; Plant response rating, Barnyardgrass [6, 22]: 5; Plant response rating, Barnyardgrass [6, 23]: 15; Plant response rating, Groundsel ([7]; 16 g ai/ha, scale 0 to 100): 100; Plant response rating, Groundsel ([7]; 31 g ai/ha, scale 0 to 100): 100; Plant response rating, Groundsel ([7]; 125 g ai/ha, scale 0 to 100 (0 no effect, 100 complete control)): 100; Plant response rating, Groundsel ([7]; 62 g ai/ha, scale 0 to 100 (0 no effect, 100 complete control)): 100; Plant response rating, Foxtail, Green [8, 16]: 25; Plant response rating, Foxtail, Green [8, 24]: 40; Plant response rating, Foxtail, Green [8, 18]: 70; Plant response rating, Foxtail, Green [8, 19]: 65; Plant response rating, Foxtail, Green [8, 20]: 0; Plant response rating, Foxtail, Green [8, 21]: 0; Plant response rating, Foxtail, Green [8, 22]: 0; Plant response rating, Foxtail, Green [8, 23]: 0; Plant response rating, Itchgrass [9, 16]: 0; Plant response rating, Itchgrass [9, 24]: 40; Plant response rating, Itchgrass [9, 18]: 65; Plant response rating, Itchgrass [9, 19]: 40; Plant response rating, Itchgrass [9, 20]: 0; Plant response rating, Itchgrass [9, 21]: 0; Plant response rating, Itchgrass [9, 22]: 0; Plant response rating, Itchgrass [9, 23]: 20; Plant response rating, Crabgrass, Naked [10, 16]: 35; Plant response rating, Crabgrass, Naked [10, 24]: 65; Plant response rating, Crabgrass, Naked [10, 18]: 75; Plant response rating, Crabgrass, Naked [10, 19]: 70; Plant response rating, Crabgrass, Naked [10, 20]: 0; Plant response rating, Crabgrass, Naked [10, 21]: 0; Plant response rating, Crabgrass, Naked [10, 22]: 0; Plant response rating, Crabgrass, Naked [10, 23]: 75; Plant response rating, Nutsedge, Purple [11, 16]: 0; Plant response rating, Nutsedge, Purple [11, 24]: 10; Plant response rating, Nutsedge, Purple [11, 18]: 50; Plant response rating, Nutsedge, Purple [11, 19]: 35; Plant response rating, Nutsedge, Purple [11, 20]: 0; Plant response rating, Nutsedge, Purple [11, 21]: 0; Plant response rating, Nutsedge, Purple [11, 22]: 0; Plant response rating, Nutsedge, Purple [11, 23]: 70; Plant response rating, Guineagrass [12, 16]: 20; Plant response rating, Guineagrass [12, 24]: 30; Plant response rating, Guineagrass [12, 18]: 35; Plant response rating, Guineagrass [12, 19]: 30; Plant response rating, Guineagrass [12, 20]: 0; Plant response rating, Guineagrass [12, 21]: 0; Plant response rating, Guineagrass [12, 22]: 0; Plant response rating, Guineagrass [12, 23]: 0; Plant response rating, Spanishneedles [13, 16]: 35; Plant response rating, Spanishneedles [13, 24]: 50; Plant response rating, Spanishneedles [13, 18]: 65; Plant response rating, Spanishneedles [13, 19]: 50; Plant response rating, Spanishneedles [13, 20]: 0; Plant response rating, Spanishneedles [13, 21]: 0; Plant response rating, Spanishneedles [13, 23]: 100; Plant response rating, Spanishneedles [13, 25]: 90; Plant response rating, Field Bindweed [14, 16]: 50; Plant response rating, Field Bindweed [14, 24]: 50; Plant response rating, Field Bindweed [14, 18]: 65; Plant response rating, Field Bindweed [14, 19]: 65; Plant response rating, Field Bindweed [14, 20]: 0; Plant response rating, Field Bindweed [14, 21]: 0; Plant response rating, Field Bindweed [14, 22]: 35; Plant response rating, Field Bindweed [14, 23]: 98; Plant response rating, Ryegrass, Italian [15, 16]: 0; Plant response rating, Ryegrass, Italian [15, 24]: 0; Plant response rating, Ryegrass, Italian [15, 18]: 5; Plant response rating, Ryegrass, Italian [15, 19]: 0; Plant response rating, Ryegrass, Italian [15, 20]: 0; Plant response rating, Ryegrass, Italian [15, 21]: 0; Plant response rating, Ryegrass, Italian [15, 23]: 0; Plant response rating, Ryegrass, Italian [15, 25]: 0
